Experimental data published in ChEMBL document CHEMBL1127385, “Synthesis and diuretic activity of alkyl- and arylguanidine analogs of N,N'-dicyclohexyl-4-morpholinecarboxamidine in rats and dogs” (J Med Chem, 1994).

What was measured:
Conditions in all cases: in vivo, po
Rattus norvegicus [1] = assay: Tested for the diuretic activity by measuring the urinary volume after peroral administering 289 uM/Kg of drug in rats; format: ADME, organism-based, Urine
Rattus norvegicus [2] = assay: Ratio of Total electrolytic excretion of sodium and potassium in urine of rats after peroral administration of 86.9 uM/Kg of drug; format: ADME, organism-based
Rattus norvegicus [3] = assay: Total electrolytic excretion of sodium in urine of rats after peroral administration of 289 uM/Kg of drug; format: ADME, organism-based
Rattus norvegicus [4] = assay: Ratio of Total electrolytic excretion of sodium and potassium in urine of rats after peroral administration of 28.9 uM/Kg of drug; format: ADME, organism-based
Rattus norvegicus [5] = assay: Total electrolytic excretion of potassium in urine of rats after peroral administration of 289 uM/Kg of drug; format: ADME, organism-based
Rattus norvegicus [6] = assay: Tested for the diuretic activity by measuring the urinary volume after peroral administering 28.9 uM/Kg of drug in rats; format: ADME, organism-based, Urine
Rattus norvegicus [7] = assay: Tested for the diuretic activity by measuring the urinary volume after peroral administering 86.9 uM/Kg of drug in rats; format: ADME, organism-based, Urine
Rattus norvegicus [8] = assay: Total electrolytic excretion of sodium in urine of rats after peroral administration of 28.9 uM/Kg of drug; format: ADME, organism-based
Rattus norvegicus [9] = assay: Total electrolytic excretion of potassium in urine of rats after peroral administration of 86.9 uM/Kg of drug; format: ADME, organism-based
Rattus norvegicus [10] = assay: Total electrolytic excretion of potassium in urine of rats after peroral administration of 28.9 uM/Kg of drug; format: ADME, organism-based
Rattus norvegicus [11] = assay: Ratio of Total electrolytic excretion of sodium and potassium in urine of rats after peroral administration of uM/Kg of drug; format: ADME, organism-based
Rattus norvegicus [12] = assay: Total electrolytic excretion of chlorine in urine of rats after peroral administration of 28.9 uM/Kg of drug; format: ADME, organism-based
Rattus norvegicus [13] = assay: Total electrolytic excretion of chlorine in urine of rats after peroral administration of 86.9 uM/Kg of drug; format: ADME, organism-based
Rattus norvegicus [14] = assay: Total electrolytic excretion of chlorine in urine of rats after peroral administration of 289 uM/Kg of drug; format: ADME, organism-based
Rattus norvegicus [15] = assay: Total electrolytic excretion of sodium in urine of rats after peroral administration of 86.9 uM/Kg of drug; format: ADME, organism-based
Rattus norvegicus [16] = assay: Tested for the diuretic activity by measuring the urinary volume after peroral administering 80.9 uM/Kg of drug in rats; format: ADME, organism-based, Urine
Rattus norvegicus [17] = assay: Total electrolytic excretion of chlorine in urine of rats after peroral administration of 27 uM/Kg of drug; format: ADME, organism-based
Rattus norvegicus [18] = assay: Total electrolytic excretion of potassium in urine of rats after peroral administration of 27 uM/Kg of drug; format: ADME, organism-based
Rattus norvegicus [19] = assay: Total electrolytic excretion of chlorine in urine of rats after peroral administration of 270 uM/Kg of drug; format: ADME, organism-based
Rattus norvegicus [20] = assay: Total electrolytic excretion of chlorine in urine of rats after peroral administration of 80.9 uM/Kg of drug; format: ADME, organism-based
Rattus norvegicus [21] = assay: Tested for the diuretic activity by measuring the urinary volume after peroral administering 270 uM/Kg of drug in rats; format: ADME, organism-based, Urine
Rattus norvegicus [22] = assay: Total electrolytic excretion of sodium in urine of rats after peroral administration of 270 uM/Kg of drug; format: ADME, organism-based
Rattus norvegicus [23] = assay: Total electrolytic excretion of sodium in urine of rats after peroral administration of 80.9 uM/Kg of drug; format: ADME, organism-based
Rattus norvegicus [24] = assay: Total electrolytic excretion of potassium in urine of rats after peroral administration of 80.9 uM/Kg of drug; format: ADME, organism-based
Rattus norvegicus [25] = assay: Tested for the diuretic activity by measuring the urinary volume after peroral administering 27 uM/Kg of drug in rats; format: ADME, organism-based, Urine
Rattus norvegicus [26] = assay: Ratio of Total electrolytic excretion of sodium and potassium in urine of rats after peroral administration of 80.9 uM/Kg of drug; format: ADME, organism-based
Rattus norvegicus [27] = assay: Ratio of Total electrolytic excretion of sodium and potassium in urine of rats after peroral administration of 27 uM/Kg of drug; format: ADME, organism-based
Rattus norvegicus [28] = assay: Total electrolytic excretion of sodium in urine of rats after peroral administration of 27 uM/Kg of drug; format: ADME, organism-based
Rattus norvegicus [29] = assay: Total electrolytic excretion of potassium in urine of rats after peroral administration of 270 uM/Kg of drug; format: ADME, organism-based
Rattus norvegicus [30] = assay: Ratio of Total electrolytic excretion of sodium and potassium in urine of rats after peroral administration of 270 uM/Kg of drug; format: ADME, organism-based

Q: C1CCC(/N=C(/NC2CCCCC2)N2CCSCC2)CC1 was tested. Which V (Rattus norvegicus [1]) did it give?
A: Its V is 9.2 mL.

Q: What about the Ratio (Rattus norvegicus [2]) of the same compound?
A: Its Ratio is 5.7.

Q: What about the “Excretion Na+” value (Rattus norvegicus [3]) of the same compound?
A: The value was 1.59 m equiv.

Q: What about the Ratio (Rattus norvegicus [4]) of the same compound?
A: Its Ratio is 3.7.

Q: And the “Excretion K+” value (Rattus norvegicus [5])?
A: Its value is 0.27 m equiv.

Q: And the V (Rattus norvegicus [6])?
A: Its V is 9.1 mL.

Q: And the V (Rattus norvegicus [7])?
A: Its V is 11.3 mL.

Q: What about the “Excretion Na+” value (Rattus norvegicus [8]) of the same compound?
A: Its value is 1.32 m equiv.

Q: What about the “Excretion K+” value (Rattus norvegicus [9]) of the same compound?
A: The value was 0.32 m equiv.

Q: What about the “Excretion K+” value (Rattus norvegicus [10]) of the same compound?
A: Its value is 0.36 m equiv.

Q: And the Ratio (Rattus norvegicus [11])?
A: The Ratio was 5.5.

Q: What about the “Excretion Cl-” value (Rattus norvegicus [12]) of the same compound?
A: The value was 1.49 m equiv.

Q: And the “Excretion Cl-” value (Rattus norvegicus [13])?
A: The value was 1.78 m equiv.

Q: And the “Excretion Cl-” value (Rattus norvegicus [14])?
A: The value was 1.51 m equiv.

Q: What about the “Excretion Na+” value (Rattus norvegicus [15]) of the same compound?
A: The value was 1.81 m equiv.

Q: CC(C)CC/N=C(/NC1CCCCC1)N1CCOCC1 was tested. Which V (Rattus norvegicus [16]) did it give?
A: Its V is 8.4 mL.

Q: What about the “Excretion Cl-” value (Rattus norvegicus [17]) of the same compound?
A: Its value is 0.96 m equiv.

Q: What about the “Excretion K+” value (Rattus norvegicus [18]) of the same compound?
A: Its value is 0.31 m equiv.

Q: What about the “Excretion Cl-” value (Rattus norvegicus [19]) of the same compound?
A: The value was 1.01 m equiv.

Q: And the “Excretion Cl-” value (Rattus norvegicus [20])?
A: Its value is 1.31 m equiv.

Q: And the V (Rattus norvegicus [21])?
A: Its V is 5.6 mL.

Q: And the “Excretion Na+” value (Rattus norvegicus [22])?
A: Its value is 1.12 m equiv.

Q: And the “Excretion Na+” value (Rattus norvegicus [23])?
A: Its value is 1.28 m equiv.

Q: And the “Excretion K+” value (Rattus norvegicus [24])?
A: The value was 0.33 m equiv.

Q: What about the V (Rattus norvegicus [25]) of the same compound?
A: Its V is 6.6 mL.

Q: And the Ratio (Rattus norvegicus [26])?
A: The Ratio was 3.9 [Na+]/[K+].

Q: What about the Ratio (Rattus norvegicus [27]) of the same compound?
A: Its Ratio is 2.7 [Na+]/[K+].

Q: What about the “Excretion Na+” value (Rattus norvegicus [28]) of the same compound?
A: The value was 0.85 m equiv.

Q: What about the “Excretion K+” value (Rattus norvegicus [29]) of the same compound?
A: The value was 0.21 m equiv.

Q: What about the Ratio (Rattus norvegicus [30]) of the same compound?
A: Its Ratio is 5.2 [Na+]/[K+].
